Data taken from patent publication US20150166505A1, “PYRIDINYL-SUBSTITUTED PYRAZOLYL CARBOXAMIDES” (GRÜNENTHAL GMBH, priority 2013, published 2015).
In brackets after ≈: the same amount, converted by molar mass. Like-named read-outs stand apart in the source and are kept apart here.

Tests used:
[1] = test system: Interleukin-2 (IL-2) production/release in Jurkat T cell line; assay: Jurkat IL-2 Production Assay; assay type: cell-based; conditions: Homo sapiens; Jurkat T cells, PHA stimulation 22 hours
How it was run: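 Jurkat E6-1 cells (5*10^5/well) preincubated 30 min with compound, then stimulated with 15 μg/ml PHA for 22 h at 37 °C. IC50 from 8-point 1:3.16 dilutions starting at 10 μM.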

[2] = target: T1, CRAC channel (endogenous SOC in HEK293 cells) (Homo sapiens, UniProt Q96D31); assay: HEK Calcium Influx Assay (FLIPR); assay type: cell-based
T1 construct: endogenous in cells; host or cells: HEK293 (ECACC)
T1 sequence (Q96D31 whole entry): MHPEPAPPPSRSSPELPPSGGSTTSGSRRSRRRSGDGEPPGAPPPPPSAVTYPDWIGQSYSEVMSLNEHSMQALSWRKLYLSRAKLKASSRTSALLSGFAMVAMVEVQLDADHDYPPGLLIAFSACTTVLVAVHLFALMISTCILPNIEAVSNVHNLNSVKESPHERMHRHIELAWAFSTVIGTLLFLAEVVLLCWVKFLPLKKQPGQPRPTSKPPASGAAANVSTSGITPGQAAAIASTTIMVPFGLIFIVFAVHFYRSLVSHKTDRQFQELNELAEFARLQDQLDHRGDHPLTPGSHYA
How it was run: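 Endogenous SOC in HEK293 cells, Calcium-4 dye-loaded; stores depleted with 2 μM thapsigargin in Ca2+-free HBS (100 μM EGTA, pH 7.4) 10 min, then 3 mM CaCl2 added. Compound given after 15 min; signal averaged 9.5–10 min post-addition versus DMSO and non-TG controls. IC50 from 8-point 1:3.16 series starting 10 μM.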

[3] = Nephelometric Solubility Measurement; assay type: physicochemical; conditions: aqueous buffer, kinetic from dmso stock; phosphate buffered saline pH 7.4, 37° C., incubation 2 minutes
Protocol: Nephelometric Solubility Measurement
BMG Labtech Nephelostar (S/N 504-0167), 37° C.; Gain: 100; Laser Beam Focus 1.5 mm; Laser intensity 80%; measurement time/well 0.1 s; positioning delay 0.1 s; data analysis: BMG Labtech MARS software
Measurements with BMG Labtech Nephelostar performed though addition of DMSO stock solutions of compound (2, 5, 10, 20, 30, 40, 50, 60, 80, 100 [μg/mL]) into phosphate buffered saline (pH 7.4, purchased from Invitrogen, catalogue number 10010-056); incubation time: 2 minutes [blank measurement contains DMSO (2.5 μL) and buffered saline (47.5 μL)]; Detection of insoluble particles in liquid samples was performed by measuring forward scattered light.

[4] = thapsigargin store depletion, read-out: % inhib. [@ 10 μM] FLIPR

IC50 [1] [µM]	inhibition at 10 µM ([2]; numeric values of Table 2, read-out: inhib. [@ 10 μM] FLIPR) [%]	inhibition at 10 µM [2, 4] [%]	solubility at 2 min [3] [µM]	SMILES
< 0.5	75	> 70	149 (≈ 55.6 µg/mL)	CCOc1cc(C)c(-c2cc(C(=O)Nc3c(F)cccc3F)nn2C)cn1 [Example 3, N-(2,6-Difluoro-phenyl)-5-(6-ethoxy-4-methyl-pyridin-3-yl)-1-methyl-1H-pyrazole-3-carboxylic acid amide]
< 0.5	–	> 70	> 267	COc1cc(OC)c(-c2cc(C(=O)Nc3c(F)cccc3F)nn2C)cn1 [Example 38, N-(2,6-Difluoro-phenyl)-5-(4,6-dimethoxy-pyridin-3-yl)-1-methyl-1H-pyrazole-3-carboxylic acid amide]
1 to 5	–	< 50	131 (≈ 57.8 µg/mL)	COc1ncc(-c2nn(C)c(=O)o2)cc1-c1cc(C(=O)Nc2c(F)cccc2F)nn1C [Example 74, N-(2,6-Difluoro-phenyl)-5-[2-methoxy-5-(4-methyl-5-oxo-4H-[1,3,4]oxadiazol-2-yl)-pyridin-3-yl]-1-methyl-1H-pyrazole-3-carboxylic acid amide]
